The source of these data is article PMC3702004, “Comparison of Intake and Systemic Relative Effect Potencies of Dioxin-like Compounds in Female Mice after a Single Oral Dose” (Environmental Health Perspectives, 2013).

One data set has as its system Cyp1b1 mRNA in PBLs. Briefly: Cyp1b1 gene expression in peripheral blood lymphocytes. Format: in vivo, female C57BL/6 mice. As to conditions: highest dose tested; day 3.
The conditions of data set [1]: toxic equivalency factor relative to TCDD; ref Van den Berg et al. 2006; cited from earlier work.
Data set [2] is described as follows: Compound analysis: liver, adipose and plasma concentrations 3 days after a single oral dose. In kind it is in vivo, female C57BL/6 mice. Conditions: for Liver:adipose ratio: based on ng/g tissue, day 3.
[3] abbreviates: oral dose 5 µg/kg bw, 3 days after single oral dose.
Where [4] appears, read: oral dose 25 µg/kg bw, 3 days after single oral dose.
[5] abbreviates: oral dose 100 µg/kg bw, 3 days after single oral dose.

Each structure is given as a SMILES string.

For the molecule `Clc1ccc(-c2cc(Cl)c(Cl)c(Cl)c2)cc1Cl` [PCB-126, 3,3´,4,4´,5-pentachlorobiphenyl], the “Induction of Cyp1b1 mRNA in PBLs, of the maximal induction of TCDD” value in the data set with Cyp1b1 mRNA in PBLs is on record as 3.5%. For the same molecule, the WHO-TEF in data set [1] is reported as 0.1. In data set [2] (3 days after single oral dose, Table 1 doses), the “liver:adipose ratio (hepatic sequestration criterion 0.3)” value was above 0.3. Besides, the “Liver:adipose ratio” value in data set [2] (dose 5 μg/kg BW) amounted to 3.2±0.3; in data set [2] (dose 25 μg/kg BW), 5.9±0.9; in data set [2] (dose 100 μg/kg BW), 9.1±0.9. Moreover, the “Adipose % dose / g tissue” value in data set [2] (setting [3]) was 12 % dose / g tissue; in data set [2] (setting [4]), 11 % dose / g tissue; in data set [2] (setting [5]) it was 5.5 % dose / g tissue. The “Liver % dose / g tissue” value turned out to be 38 % dose / g tissue in data set [2] (setting [3]), 65 % dose / g tissue in data set [2] (setting [4]) and 51 % dose / g tissue in data set [2] (setting [5]). The “Plasma % dose / g tissue” value is 0.035 % dose / g tissue in data set [2] (setting [3]); 0.018 % dose / g tissue in data set [2] (setting [4]); 0.012 % dose / g tissue in data set [2] (setting [5]); 0.013 % dose / g tissue in data set [2] (oral dose 250 µg/kg bw, 3 days after single oral dose); 0.014 % dose / g tissue in data set [2] (oral dose 1000 µg/kg bw, 3 days after single oral dose).
